# Test results published in patent US20250064774A1, “FORMULATIONS AND METHODS OF MAKING AND USING THE SAME” (AraVai Global LLC, priority 2021, published 2025).
# System: skin of the intrascapular regions of the back
# Test: Repeat insult patch test under occlusive conditions (induction and challenge)
# Conditions: positive control
# Text: The raw material ingredients to be tested under occlusive conditions were placed on an 8-millimeter aluminum Finn Chamber® (Epitest Ltd. Oy, Tuusula, Finland) supported on Scanpor® Tape (Norgesplaster A/S, Kristiansand, Norway) or an 8-millimeter filter paper coated aluminum Finn Chamber® AQUA supported on a thin flexible transparent polyurethane rectangular film coated on one side with a medical grade acrylic adhesive, consistent with adhesive used in state-of-the-art hypoallergenic surgical tape or a 7 mm IQ-ULTRA® closed cell system which is made of additive-free polyethylene plastic foam with a filter paper incorporated. It is supplied in units of 10 chambers on a hypoallergenic non-woven adhesive tape; the width of the tape is 52 mm and the length is 118 mm or other equivalents. […]
# Approximately 0.02-0.05 mL for liquid materials and/or 0.02-0.05 g for solid materials of the test material was used for the study. […] Prior to each reapplication, the test sites evaluated by trained laboratory personnel. […] Test sites were evaluated by trained laboratory personnel 48 and 96 hours after application. In the event of an adverse reaction, the area of erythema and edema were measured. […] Subjects were instructed to report any delayed reactions that might occur after the final reading. […]
compound,measurement,value
"CCCCCCCCCCCCOS(=O)(=O)[O-].[Na+] [2.0% Sodium Lauryl Sulfate Solution, Sodium Lauryl Sulfate]",subjects with a Grade 1 reaction,ten
same,subjects with a Grade 4 reaction,one
